The record followed here is US4333930A, “Orthoarylideneaminophenethylamines and pharmaceutical compositions” (priority 1980, dated 1982).

Data set [1] has as its system phenylbenzoquinone (PBQ). The experiment in a line: Analgesic activity using phenylbenzoquinone (PBQ) as noxious agent, Table 2. Format: in vivo, male Swiss mouse. The protocol: The analgesic activity was determined with the male Swiss mouse using phenylbenzoquinone (PBQ) (a variation of the method of Siegmund et al, Proc. Soc. Exp. Med., […], 95, 729-31) as the noxious agent. Twenty-eightminutes after having administered the test products in a suspension in a 6% gum base, the PBQ solution was injected. The mice were then observed ca. 5 mn. for the next five minutes.
% of analgesic activity as a function of
the dose expressed in mg/kg

In data set [2] the test system is Swiss mice. The experiment in a line: Oral toxicity (mortality) in the mouse, Table 1. The note with it: 14 days, 20160 min. Format: in vivo. The protocol:
(§1) The mortality percentages caused by the products of the present invention administered orally to Swiss mice are shown in Table 1. The animals, free of specific pathological organism were housed in an air conditioned room from 24 to 48 hours before the start of the experiments. They were divided up into lots of 5 males and 5 females. With the animals unfed for 24 hours, the substances were administered intragastrically in a base of 6% gum arabic in a volume equal to 0.1 ml for 10 g of animal weight. The mortality was recorded at 14 days.
(§2) % of mortality as a function of the dose

The nature of data set [3]: Oral toxicity (mortality) in the mouse, Table 1. The following applies: mouse, in vivo, po, Swiss mice, 14 days. The data set is classed as in vivo. The method, then: as §1, §2
In data set [4] the test system is number of escapes the animal made in 5 minutes. The experiment in a line: Escape test, Table 3. The data set is classed as in vivo, mouse. The note with it: 5 min, read-out: % of activity (variation of the number of escapes). From the text:
The products of the invention were always administered orally in 6% gum base.
The notation NS signifies that the difference between the results noted for the product and the results noted for the excipient alone is not significant at the threshold 0.05 according to the Student t Test.

Data set [5] has as its system trembling induced by oxotremorine. The experiment in a line: Antagonism of trembling induced by oxotremorine, Table 7. The following applies: read-out: % of inhibition of trembling induced by oxotremorine. Format: in vivo. From the text:
(§3) The psychotropic profile of the present invention products has been characterized with the animals in numerous tests some of whose results are shown hereinafter. The products of the invention were always administered orally in 6% gum base.
(§4) Certain tests made it possible to show antidepressive activities. These are tests of antagonism to the effects of reserpine, oxotremorine (according to Everett G. M. et al, Science, 1956, 124, 79 and Levy J. et al, Therapie 1965, 20, 265) and to despair (according to Porsolt P. D. et al, Eur. J. Pharmacol., 1978, 47, 379-91).
% of inhibition of trembling induced by
oxotremorine as a function of the dose
administered expressed in mg/kg

The test system of data set [6] is ptosis induced by reserpine. The experiment in a line: Antagonism of ptosis induced by reserpine, Table 6. Format: in vivo. The note with it: read-out: % of inhibition of ptosis induced by reserpine.
From the text: as §3, §4
% of inhibition of ptosis induced by reserpine
as a function of the dose administered orally

Data set [7] deals with number of displacements of the animal. The experiment in a line: Four plates test (anxiolytic activity), Table 5. Format: in vivo. The following applies: oral, mouse.
From the text: as §3
A certain number of products manifest an anxiolytic activity evidenced in the test with the four plates with the mouse (Table 5).
% of increase in the number of displacements of the
animal as a function of the dose expressed in mg/kg

The test system of data set [8] is stereotype induced by apomorphine. The experiment in a line: Antagonism of the stereotype induced by apomorphine, Table 4. The data set is classed as in vivo. The note with it: for % of activity vis-a-vis the stereotype induced by apomorphine: oral; for antagonism vis-a-vis the stereotype with apomorphine: in words.
From the text: as §3
% of activity vis-a-vis the stereotype
induced by apomorphine as a function of the
administered dose expressed in mg/kg

Where [9] appears, read: 50 mg/kg, male Swiss mouse, PBQ.
Setting [10] is: Mus musculus, read-out: % of analgesic activity, 100 mg/kg, male Swiss mouse, PBQ.
[11] abbreviates: Mus musculus, 200 mg/kg, male Swiss mouse, PBQ, read-out: % of analgesic activity.
Setting [12] is: Mus musculus, read-out: % of analgesic activity, 200 mg/kg, male Swiss mouse, PBQ.

Read-outs that look alike come from different tables or passages of the source.

Consider `CN(C)CCc1cc2c(cc1N=Cc1cccs1)OCO2` [COR 01 151], for which, in data set [1] (setting [9]), the “% of analgesic activity” value is given as 41%. The inhibition in vivo at 100 mg/kg in data set [1] (setting [10]) worked out at 79%. For the same compound, the figures for the “% of mortality” value in data set [2] (150 mg/kg), in data set [2] (250 mg/kg) and in data set [2] (500 mg/kg) were 0%, 10% and 40%, respectively. Moreover, the mortality at 336 h in data set [3] (750 mg/kg) stood at 60%. In data set [4] (Mus musculus, po), the change in vivo at 100 mg/kg was -41%.

As to `CN(C)CCc1cc2c(cc1N=Cc1cccs1)OCO2` [COR 01 163], in data set [1] (setting [9]), the “% of analgesic activity” value is 17.5%. Moreover, the figures for the “% of mortality” value in data set [2] (150 mg/kg), in data set [2] (250 mg/kg) and in data set [2] (500 mg/kg) were 25%, 70% and 100%, respectively.

Take `CN(C)CCc1cc2c(cc1N=Cc1cccs1)OCO2` [COR 01 171]: in data set [1] (setting [9]), the “% of analgesic activity” value turned out to be 51%. Further, the “% of mortality” value is 20% in data set [2] (150 mg/kg), 80% in data set [2] (250 mg/kg) and 90% in data set [2] (500 mg/kg).

Turning to `C(=Nc1cc2c(cc1CCN1CCCCC1)OCO2)c1cccnc1` [COR 01 174], in data set [1] (100 mg/kg, male Swiss mouse, PBQ), the “% of analgesic activity” value is 48%. Moreover, the inhibition in vivo at 200 mg/kg in data set [1] (setting [11]) is 18%. Moreover, the results for the “% of mortality” value in data set [2] (500 mg/kg) and in data set [2] (1000 mg/kg) were 0% and 10%, respectively. The same compound returned a mortality at 336 h in data set [3] (2000 mg/kg) of 50%.

For `CN(C)CCc1cc2c(cc1N=Cc1cccs1)OCO2` [COR 01 179], the “% of mortality” value turned out to be 10% in data set [2] (250 mg/kg) and 90% in data set [2] (500 mg/kg).

Regarding `C(=Nc1cc2c(cc1CCN1CCOCC1)OCO2)c1cccs1` [COR 01 180], the change in vivo at 50 mg/kg in data set [5] (50 mg/kg, oral) was -22%; in data set [4] (50 mg/kg, oral, mouse, 5 minutes), -21%. The change in vivo at 100 mg/kg in data set [5] (100 mg/kg, oral) was -44%; in data set [4] (100 mg/kg, oral, mouse, 5 minutes), -37%. The change in vivo at 200 mg/kg was -44% in data set [5] (200 mg/kg, oral) and -75% in data set [4] (200 mg/kg, oral, mouse, 5 minutes). Further, in data set [6] (2.5 mg/kg, oral), the change in vivo at 2.5 mg/kg was -18%. The change in vivo at 5 mg/kg in data set [6] (5 mg/kg, oral) is -34%. Also, the change in vivo at 10 mg/kg in data set [6] (10 mg/kg, oral) was -26%. For the same compound, the change in vivo at 25 mg/kg in data set [6] (25 mg/kg, oral) is -20%. In addition, in data set [1] (Mus musculus, 50 mg/kg, male Swiss mouse, PBQ, read-out: % of analgesic activity), the inhibition in vivo at 50 mg/kg was determined as 18%. Also, the inhibition in vivo at 100 mg/kg in data set [1] (Mus musculus, 100 mg/kg, male Swiss mouse, PBQ, read-out: % of analgesic activity) came out at 26%. Besides, the inhibition in vivo at 200 mg/kg in data set [1] (setting [11]) amounted to 34%. Besides, the “% of increase in the number of displacements of the animal” value in data set [7] (25 mg/kg) was “+69%”; in data set [7] (50 mg/kg), “+88%”; in data set [7] (75 mg/kg), “+35%”. Besides, the mortality at 336 h stood at 0% in data set [3] (500 mg/kg) and 70% in data set [3] (1000 mg/kg).

As for `C(=Nc1cc2c(cc1CCN1CCCC1)OCO2)c1cccnc1` [COR 01 186], in data set [2] (1000 mg/kg), the “% of mortality” value was 40%. Moreover, the mortality at 336 h in data set [3] (750 mg/kg) was determined as 0%; in data set [3] (1500 mg/kg), 50%.

As to `CN(C)CCc1cc2c(cc1N=Cc1cccnc1)OCO2` [COR 01 201, 6-dimethylaminoethyl N-(pyridylidene-3)-1,3-benzodioxole-5-ylamine], the “% of mortality” value in data set [2] (1000 mg/kg) is 10%. Moreover, the mortality at 336 h in data set [3] (2000 mg/kg) amounted to 30%.

Take `Cc1ccc(C=Nc2cc3c(cc2CCN(C)C)OCO3)cc1` [COR 01 206]: the “% of activity vis-a-vis the stereotype induced by apomorphine” value in data set [8] (50 mg/kg) is on record as -53%; in data set [8] (100 mg/kg), -71%; in data set [8] (200 mg/kg), -22%. In addition, in data set [8], the “antagonism vis-a-vis the stereotype with apomorphine” value (from here on “antagonism vis-a-vis the stereotype”) is reported as “manifest an antagonism”. The mortality at 336 h in data set [3] (1500 mg/kg) came out at 0%; in data set [3] (2000 mg/kg) it was 50%. Moreover, the change in vivo at 25 mg/kg in data set [4] (Mus musculus, po) is -18%. In data set [4] (Mus musculus, po), the change in vivo at 50 mg/kg is -28%. Further, the change in vivo at 100 mg/kg in data set [4] (Mus musculus, po) is -63%.

In the case of `CN(C)CCc1cc2c(cc1N=Cc1ccccc1)OCO2` [COR 01 209], the change in vivo at 50 mg/kg in data set [5] (po) is -60%; in data set [4] (Mus musculus, po) it was -32%. Moreover, in data set [5] (po), the change in vivo at 75 mg/kg is -60%. Moreover, the change in vivo at 100 mg/kg in data set [5] (po) was -55%; in data set [4] (Mus musculus, po) it was -37%. Further, the change in vivo at 150 mg/kg in data set [5] (po) was -60%. Besides, the change in vivo at 200 mg/kg in data set [5] (po) is -30%; in data set [6] (po), -45%; in data set [4] (Mus musculus, po) it was -20%. Moreover, the figures for the “% of activity vis-a-vis the stereotype induced by apomorphine” value in data set [8] (50 mg/kg), in data set [8] (100 mg/kg) and in data set [8] (200 mg/kg) were -54%, -51% and -42%, respectively. Also, the “antagonism vis-a-vis the stereotype” value in data set [8] is recorded as “manifest an antagonism”. For the same compound, in data set [1] (setting [12]), the inhibition in vivo at 200 mg/kg was found to be 17%. Moreover, the results for the mortality at 336 h in data set [3] (1000 mg/kg), in data set [3] (1500 mg/kg) and in data set [3] (2000 mg/kg) were 0%, 40% and 60%, respectively. The change in vivo at 5 mg/kg in data set [4] (Mus musculus, po) was -28%. In addition, the change in vivo at 25 mg/kg in data set [4] (Mus musculus, po) is -38%.

Regarding `COc1ccc(C=Nc2cc3c(cc2CCN(C)C)OCO3)cc1` [COR 01 210], the change in vivo at 50 mg/kg in data set [5] (po) is -50%; in data set [6] (po) it was -21%. Also, the change in vivo at 75 mg/kg in data set [5] (po) was -40%. Moreover, the change in vivo at 100 mg/kg was -50% in data set [5] (po); -38% in data set [6] (po); -20% in data set [4] (Mus musculus, po). The change in vivo at 150 mg/kg in data set [5] (po) was -30%; in data set [4] (Mus musculus, po), -26%. Besides, the change in vivo at 200 mg/kg was -50% in data set [5] (po) and -72% in data set [4] (Mus musculus, po). The “% of activity vis-a-vis the stereotype induced by apomorphine” value in data set [8] (75 mg/kg) and in data set [8] (150 mg/kg) was -33% in each case. Besides, in data set [8], the “antagonism vis-a-vis the stereotype” value is on record as “manifest an antagonism”. In addition, in data set [1] (setting [10]), the inhibition in vivo at 100 mg/kg amounted to 27%. For the same compound, the inhibition in vivo at 200 mg/kg in data set [1] (setting [12]) stood at 33%. Also, the mortality at 336 h in data set [3] (750 mg/kg) was found to be 0%; in data set [3] (1000 mg/kg), 10%; in data set [3] (2000 mg/kg), 20%.
